From patent publication US8329699B2, “Pyrrolopyrazine kinase inhibitors” (Hoffmann-La Roche Inc., priority 2010, dated 2012)
Several values for one entry are separate records, joined by “and”; a condition that tells them apart may be missing. Identical values can stand only once. Counter-ions that a name gives are not always drawn.

Tests used:
[1] = target: T1, JAK3: Recombinant human kinase domain (h-jak3-sf21-c) (Homo sapiens, UniProt P52333); assay: Determination of IC50 of Janus Kinase (JAK) inhibition, JAK3 (radioactive end-point assay with 33P-ATP); assay type: biochemical; details: ATP 1.5 uM, peptide 50 uM, 20 minutes, room temperature
T1 construct: JAK3: Recombinant human kinase domain from Millipore (Cat # 14-629) or prepared; purchased Millipore 14-629
T1 sequence (P52333 822-1111 limits assumed): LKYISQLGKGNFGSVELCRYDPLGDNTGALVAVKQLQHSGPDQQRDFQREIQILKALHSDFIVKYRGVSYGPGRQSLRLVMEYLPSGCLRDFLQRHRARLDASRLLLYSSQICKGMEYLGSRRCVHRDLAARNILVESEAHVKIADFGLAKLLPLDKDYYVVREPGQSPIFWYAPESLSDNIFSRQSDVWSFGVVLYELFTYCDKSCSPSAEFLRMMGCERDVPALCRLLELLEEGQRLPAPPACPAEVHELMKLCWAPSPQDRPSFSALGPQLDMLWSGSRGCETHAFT
Excerpt: Determination of IC50 of Janus Kinase (JAK) Inhibition:
Enzymes and peptide substrate used are described below: • JAK1: Recombinant human kinase domain from Invitrogen (Cat # PV4774) • JAK3: Recombinant human kinase domain from Millipore (Cat # 14-629) or prepared. • JAK2: Recombinant human kinase domain from Millipore (Cat # 14-640) • Substrate: N-terminally biotinylated 14-mer peptide derived from activation loop of JAK1 with sequence of the peptide substrate: Biotin-[…]
Assay conditions used are described below: • Assay Buffer: JAK Kinase Buffer: 50 mM Hepes [pH 7.2], 10 mM MgCl2, 1 mM DTT, 1 mg/mL BSA. The assay is carried out in this buffer. • Assay Format The kinase activity of all three JAK kinases is measured using a radioactive, end-point assay and with trace amounts of^33P-ATP. The assays are carried out in 96-well polypropylene plates. Experimental Method:
All concentrations are final in the reaction mixture and all incubations are carried at room temperature. Assay steps are described below: • 1) Compounds are serially diluted in 100% DMSO typically at a 10× starting concentration of 1 mM. Final concentration of DMSO in the reaction is 10%. • 2) Compounds are preincubated with enzyme (0.5 nM JAK3 (commercially available), 0.2 nM JAK3 (prepared), 1 nM JAK2, 5 nM JAK1) for 10 minutes. • 3) Reactions are initiated by the addition of a cocktail of the two substrates (ATP and peptide premixed in the JAK Kinase Buffer). In the JAK2/JAK3 assays, ATP and the peptide are used at concentrations of 1.5 uM and 50 uM, respectively. JAK1 assay is carried out at an ATP concentration of 10 uM and a peptide concentration of 50 uM. • 4) The duration of the assay for JAK2 and JAK3 is 20 minutes. JAK1 assay is carried out for 40 minutes. With all three enzymes, reactions are terminated by the addition of 0.5M EDTA to a final concentration of 100 mM. • 5) 25 ul of terminated reactions are transferred to 150 ul of a 7.5% (v/v) slurry of streptavidin-coated sepharose beads in MgCl2- and CaCl2-free 1× Phosphate Buffered Saline containing 50 mM of EDTA in 96-well, 1.2 um MultiScreen-BV filter plates. • 6) After a 30-minute incubation, the beads are washed under vacuum with the following buffers: • a. 3 to 4 washes with 200 ul of 2M NaCl. • b. 3 to 4 washes with 200 ul of 2M NaCl plus 1% (v/v) phosphoric acid. • c. 1 wash with water. • 7) Washed plates are dried in a 60° C. oven for between 1 to 2 hours. • 8) 70 ul of Microscint 20 scintillation fluid is added to each well of filter plates and after at least 30 minutes of incubation, radioactive counts are measured in a Perkinelmer microplate scintillation counter.

| SMILES | IC50 [1] [nM] | melting point |
| --- | --- | --- |
| CCCS(=O)(=O)N1CCCC(NC(=O)c2c[nH]c3ncc(C4CC4)nc23)C1 (centres unmarked) [Compound I-28, 2-Cyclopropyl-5H-pyrrolo[2,3-b]pyrazine-7-carboxylic acid [1-(propane-1-sulfonyl)-piperidin-3-yl]-amide] | 22 | 228 to 230 °C |
| N#CC1(NC(=O)c2c[nH]c3ncc(C4CC4)nc23)CC1 [Compound I-10, 2-Cyclopropyl-5H-pyrrolo[2,3-b]pyrazine-7-carboxylic acid (1-cyano-cyclopropyl)-amide] | 524 | > 300 °C |
| N#C[C@@H]1CCC[C@@H]1NC(=O)c1c[nH]c2ncc(C3CC3)nc12 (relative stereo) [Compound I-25, 2-Cyclopropyl-5H-pyrrolo[2,3-b]pyrazine-7-carboxylic acid ((cis)-2-cyano-cyclopentyl)-amide] | 10 | > 300 °C |
| CS(=O)(=O)N1CCCC(NC(=O)c2c[nH]c3ncc(C4CC4)nc23)C1 (centres unmarked) [Compound I-24, 2-Cyclopropyl-5H-pyrrolo[2,3-b]pyrazine-7-carboxylic acid (1-methanesulfonyl-piperidin-3-yl)-amide] | 8 | 284 to 287 °C |
| CC(=O)N1CCCC(NC(=O)c2c[nH]c3ncc(C4CC4)nc23)C1 (centres unmarked) [Compound I-38, 2-Cyclopropyl-5H-pyrrolo[2,3-b]pyrazine-7-carboxylic acid (1-acetyl-piperidin-3-yl)-amide] | 74.2 | 215 to 218 °C |
| O=C(NC1CCOCC1)c1c[nH]c2ncc(C3CC3)nc12 [Compound I-1, 2-Cyclopropyl-5H-pyrrolo[2,3-b]pyrazine-7-carboxylic acid (tetrahydro-pyran-4-yl)-amide] | 42 | > 300 °C |
| C[C@]1(O)CCC[C@@H]1NC(=O)c1c[nH]c2ncc(C3CC3)nc12 (relative stereo) [Compound I-11, 2-Cyclopropyl-5H-pyrrolo[2,3-b]pyrazine-7-carboxylic acid ((trans)-2-hydroxy-2-methyl-cyclopentyl)-amide] | 12.9 | 260 to 262 °C |
| CC(C)(O)C1(NC(=O)c2c[nH]c3ncc(C4CC4)nc23)CCCCC1 [Compound I-14, 2-Cyclopropyl-5H-pyrrolo[2,3-b]pyrazine-7-carboxylic acid [1-(1-hydroxy-1-methyl-ethyl)-cyclohexyl]-amide] | 38.9 | 228 to 230 °C |
| CC(C)(O)C1(NC(=O)c2c[nH]c3ncc(C4CC4)nc23)CCNC1 (centres unmarked) [Compound I-17, 2-Cyclopropyl-5H-pyrrolo[2,3-b]pyrazine-7-carboxylic acid [3-(1-hydroxy-1-methyl-ethyl)-pyrrolidin-3-yl]-amide] | 10000 |  |
| CC(C)(O)C1(NC(=O)c2c[nH]c3ncc(C4CC4)nc23)CCNC1 (centres unmarked) (as salt: hydrochloride) [Compound I-17, 2-Cyclopropyl-5H-pyrrolo[2,3-b]pyrazine-7-carboxylic acid [3-(1-hydroxy-1-methyl-ethyl)-pyrrolidin-3-yl]-amide] |  | 200 to 203 °C |
| CC1(C)CCN(S(C)(=O)=O)CC1NC(=O)c1c[nH]c2ncc(C3CC3)nc12 (centres unmarked) [Compound I-35, 2-Cyclopropyl-5H-pyrrolo[2,3-b]pyrazine-7-carboxylic acid (1-methanesulfonyl-4,4-dimethyl-piperidin-3-yl)-amide] | 2.1 |  |
| CC(=O)N[C@@H]1CCc2ccc(Oc3cnc4[nH]cc(C(=O)NC5CCCCC5)c4n3)cc21 [Compound I-40, 2-((R)-3-Acetylamino-indan-5-yloxy)-5H-pyrrolo[2,3-b]pyrazine-7-carboxylic acid cyclohexylamide] | 50.2 |  |
| CC(=O)N[C@@H]1CCc2ccc(Oc3cnc4[nH]cc(C(=O)NC5CCS(=O)(=O)CC5)c4n3)cc21 [Compound I-41, 2-((R)-3-Acetylamino-indan-5-yloxy)-5H-pyrrolo[2,3-b]pyrazine-7-carboxylic acid (1,1-dioxo-hexahydro-1λ6-thiopyran-4-yl)-amide] | 2160 |  |

The remaining compounds from weak to strong by IC50 [1], led by results:

| IC50 [1] [nM] | melting point | SMILES |
| --- | --- | --- |
| 1040 | 296 to 299 °C | O=C(NC1(C(=O)C2CC2)CCCC1)c1c[nH]c2ncc(C3CC3)nc12 [Compound I-19, 2-Cyclopropyl-5H-pyrrolo[2,3-b]pyrazine-7-carboxylic acid (1-cyclopropanecarbonyl-cyclopentyl)-amide] |
| 674 | 294 to 296 °C | O=C(NC1(CO)CCOCC1)c1c[nH]c2ncc(C3CC3)nc12 [Compound I-2, 2-Cyclopropyl-5H-pyrrolo[2,3-b]pyrazine-7-carboxylic acid (4-hydroxymethyl-tetrahydro-pyran-4-yl)-amide] |
| 423 |  | O=C(N[C@H]1CCOC[C@@H]1O)c1c[nH]c2ncc(C3CC3)nc12 [Compound I-15, 2-Cyclopropyl-5H-pyrrolo[2,3-b]pyrazine-7-carboxylic acid ((3R,4S)-3-hydroxy-tetrahydro-pyran-4-yl)-amide] |
| 167 | 273 to 275 °C | CC(=O)N1CCC(NC(=O)c2c[nH]c3ncc(C4CC4)nc23)CC1 [Compound I-36, 2-Cyclopropyl-5H-pyrrolo[2,3-b]pyrazine-7-carboxylic acid (1-acetyl-piperidin-4-yl)-amide] |
| 120 | 242 to 245 °C | CC(=O)N1CCC(NC(=O)c2c[nH]c3ncc(C4CC4)nc23)C1 (centres unmarked) [Compound I-37, 2-Cyclopropyl-5H-pyrrolo[2,3-b]pyrazine-7-carboxylic acid (1-acetyl-pyrrolidin-3-yl)-amide] |
| 96.2 | 278 to 280 °C | CS(=O)(=O)N1CCC(NC(=O)c2c[nH]c3ncc(C4CC4)nc23)CC1 [Compound I-21, 2-Cyclopropyl-5H-pyrrolo[2,3-b]pyrazine-7-carboxylic acid (1-methanesulfonyl-piperidin-4-yl)-amide] |
| 49.7 | 232 to 234 °C | CC(C)(O)C1(NC(=O)c2c[nH]c3ncc(C4CC4)nc23)CCCC1 [Compound I-12, 2-Cyclopropyl-5H-pyrrolo[2,3-b]pyrazine-7-carboxylic acid [1-(1-hydroxy-1-methyl-ethyl)-cyclopentyl]-amide] |
| 26.3 | 280 to 281.1 °C and 280 to 281 °C | N#CCC1(NC(=O)c2c[nH]c3ncc(C4CC4)nc23)CCCC1 [Compound I-26, 2-Cyclopropyl-5H-pyrrolo[2,3-b]pyrazine-7-carboxylic acid (1-cyanomethyl-cyclopentyl)-amide] |
| 9.8 | > 300 °C | CC1(C)COCC1NC(=O)c1c[nH]c2ncc(C3CC3)nc12 (centres unmarked) [Compound I-16, 2-Cyclopropyl-5H-pyrrolo[2,3-b]pyrazine-7-carboxylic acid (4,4-dimethyl-tetrahydro-furan-3-yl)-amide] |
| 5.3 | > 300 °C | CC1(C)OCCC1NC(=O)c1c[nH]c2ncc(C3CC3)nc12 (centres unmarked) [Compound I-4, 2-Cyclopropyl-5H-pyrrolo[2,3-b]pyrazine-7-carboxylic acid (2,2-dimethyl-tetrahydro-furan-3-yl)-amide] |
| 5.2 | > 300 °C | O=C(NC1CCCCC1)c1c[nH]c2ncc(C3CC3)nc12 [Compound I-22, 2-Cyclopropyl-5H-pyrrolo[2,3-b]pyrazine-7-carboxylic acid cyclohexylamide] |
| 3.7 | 277 to 280 °C | CS(=O)(=O)N1CCC[C@@H](NC(=O)c2c[nH]c3ncc(C4CC4)nc23)C1 [Compound I-31, 2-Cyclopropyl-5H-pyrrolo[2,3-b]pyrazine-7-carboxylic acid ((R)-1-methanesulfonyl-piperidin-3-yl)-amide] |
| 1.1 | 295 to 297 °C | CC1(C)CCCCC1NC(=O)c1c[nH]c2ncc(C3CC3)nc12 (centres unmarked) [Compound I-32, 2-Cyclopropyl-5H-pyrrolo[2,3-b]pyrazine-7-carboxylic acid (2,2-dimethyl-cyclohexyl)-amide] |
| 0.3 |  | CCn1cc(-c2cnc3[nH]cc(C(=O)NC4CCCCC4(C)C)c3n2)cn1 (centres unmarked) [Compound I-39, 2-(1-Ethyl-1H-pyrazol-4-yl)-5H-pyrrolo[2,3-b]pyrazine-7-carboxylic acid (2,2-dimethyl-cyclohexyl)-amide] |
